This passage reports IC50 results from article PMC5888987 (Carcinogenesis, 2018).

Holding throughout (assay type): biochemical
One test deals with mTOR (Homo sapiens, UniProt P42345). Kind of test: FRET-based Z-LYTE kinase assay.
In another test the target is DNMT3A (Homo sapiens, UniProt Q9Y6K1). Kind of test: AlphaScreen methyltransferase assay with […] SAM. A general note: In Alpha technology, singlet oxygen from a donor bead excites a nearby acceptor bead.
The target in another test is DNMT3B (Homo sapiens, UniProt Q9UBC3). Description: AlphaScreen methyltransferase assay with […] SAM.
For the next test, the target named is DNMT1 (Homo sapiens, UniProt P26358). Kind of test: AlphaScreen methyltransferase assay with […] SAM.
DNMT1, sequence (P26358 whole entry): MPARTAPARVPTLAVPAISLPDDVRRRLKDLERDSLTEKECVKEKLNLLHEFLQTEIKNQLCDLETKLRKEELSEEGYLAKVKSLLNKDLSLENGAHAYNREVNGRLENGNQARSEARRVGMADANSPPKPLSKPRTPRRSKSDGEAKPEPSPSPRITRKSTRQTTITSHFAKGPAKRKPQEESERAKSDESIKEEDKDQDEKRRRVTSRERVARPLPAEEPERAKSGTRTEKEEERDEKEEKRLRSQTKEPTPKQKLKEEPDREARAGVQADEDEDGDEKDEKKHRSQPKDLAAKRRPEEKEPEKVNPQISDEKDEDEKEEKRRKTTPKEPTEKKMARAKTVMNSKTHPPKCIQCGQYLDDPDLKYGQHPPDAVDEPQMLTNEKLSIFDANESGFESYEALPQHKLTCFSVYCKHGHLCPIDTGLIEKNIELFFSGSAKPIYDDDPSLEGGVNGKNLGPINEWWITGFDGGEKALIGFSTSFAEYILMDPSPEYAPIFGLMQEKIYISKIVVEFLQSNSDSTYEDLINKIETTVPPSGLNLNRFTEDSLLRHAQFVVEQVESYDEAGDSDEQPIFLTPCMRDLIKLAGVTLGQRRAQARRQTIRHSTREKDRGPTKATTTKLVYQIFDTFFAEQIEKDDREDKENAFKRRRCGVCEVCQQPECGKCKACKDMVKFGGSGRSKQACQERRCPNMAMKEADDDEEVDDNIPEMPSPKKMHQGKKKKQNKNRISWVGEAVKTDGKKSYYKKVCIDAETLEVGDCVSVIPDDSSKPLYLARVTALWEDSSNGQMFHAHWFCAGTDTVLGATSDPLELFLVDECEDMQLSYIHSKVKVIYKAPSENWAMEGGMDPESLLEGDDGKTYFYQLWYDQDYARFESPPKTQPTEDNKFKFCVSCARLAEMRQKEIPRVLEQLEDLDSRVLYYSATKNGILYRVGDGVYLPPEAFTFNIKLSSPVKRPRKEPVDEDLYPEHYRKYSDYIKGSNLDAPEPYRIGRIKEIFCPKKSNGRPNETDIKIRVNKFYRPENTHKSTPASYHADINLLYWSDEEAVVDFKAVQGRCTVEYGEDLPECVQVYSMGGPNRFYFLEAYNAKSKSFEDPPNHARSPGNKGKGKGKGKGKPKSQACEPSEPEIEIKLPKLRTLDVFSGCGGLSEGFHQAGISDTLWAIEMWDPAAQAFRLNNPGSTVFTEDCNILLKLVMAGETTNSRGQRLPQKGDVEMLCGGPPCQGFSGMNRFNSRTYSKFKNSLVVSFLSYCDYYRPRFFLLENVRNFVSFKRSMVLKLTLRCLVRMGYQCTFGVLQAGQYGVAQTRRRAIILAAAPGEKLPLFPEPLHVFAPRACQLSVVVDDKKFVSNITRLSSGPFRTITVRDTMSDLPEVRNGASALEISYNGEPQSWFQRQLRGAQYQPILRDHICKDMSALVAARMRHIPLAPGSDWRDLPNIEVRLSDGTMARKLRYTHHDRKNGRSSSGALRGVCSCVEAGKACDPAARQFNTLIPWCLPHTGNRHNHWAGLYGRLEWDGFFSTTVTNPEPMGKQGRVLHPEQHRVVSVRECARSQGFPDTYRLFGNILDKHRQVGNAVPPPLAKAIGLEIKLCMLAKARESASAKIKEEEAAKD

DNMT3A, sequence (Q9Y6K1 whole entry, looked up): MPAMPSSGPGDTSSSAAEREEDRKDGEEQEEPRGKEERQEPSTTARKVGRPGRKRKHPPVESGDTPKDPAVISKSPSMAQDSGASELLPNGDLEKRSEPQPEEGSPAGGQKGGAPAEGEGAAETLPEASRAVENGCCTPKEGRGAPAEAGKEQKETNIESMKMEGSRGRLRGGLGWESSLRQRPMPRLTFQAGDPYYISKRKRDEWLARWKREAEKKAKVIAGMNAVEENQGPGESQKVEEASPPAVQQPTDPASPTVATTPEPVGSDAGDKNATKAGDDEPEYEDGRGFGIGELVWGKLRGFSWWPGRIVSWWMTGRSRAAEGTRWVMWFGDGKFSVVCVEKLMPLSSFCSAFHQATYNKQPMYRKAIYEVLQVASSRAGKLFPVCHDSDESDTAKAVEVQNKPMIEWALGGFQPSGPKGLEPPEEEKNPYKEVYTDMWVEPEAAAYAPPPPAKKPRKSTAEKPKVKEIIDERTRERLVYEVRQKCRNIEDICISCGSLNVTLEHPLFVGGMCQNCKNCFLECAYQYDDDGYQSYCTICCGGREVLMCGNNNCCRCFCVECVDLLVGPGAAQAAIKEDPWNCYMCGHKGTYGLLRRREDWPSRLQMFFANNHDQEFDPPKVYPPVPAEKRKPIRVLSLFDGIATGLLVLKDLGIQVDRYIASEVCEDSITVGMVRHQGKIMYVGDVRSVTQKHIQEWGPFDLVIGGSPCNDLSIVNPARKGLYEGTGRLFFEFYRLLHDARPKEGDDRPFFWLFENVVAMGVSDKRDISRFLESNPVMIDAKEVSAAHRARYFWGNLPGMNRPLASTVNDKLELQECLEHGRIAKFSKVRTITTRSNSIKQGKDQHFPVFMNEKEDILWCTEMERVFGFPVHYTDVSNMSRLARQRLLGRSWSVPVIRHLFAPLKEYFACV

As a reminder, the IC50 is the point on the concentration scale where inhibition reaches its midpoint. `C/C=C(/C=O)[C@@H](CC=O)CC(=O)OCCc1ccc(O)c(O)c1` [DOA, decarboxymethyl oleuropein aglycone]: the IC50 against mTOR came out at 2.6 µM; on DNMT3A, 5.7 µM; at DNMT3B, 5.2 µM; at DNMT1, 11.5 µM.
Regarding `Nc1ncnc2c1ncn2[C@@H]1O[C@H](CSCC[C@H](N)C(=O)O)[C@@H](O)[C@H]1O` [SAH, S-adenosyl-l-homocysteine, reference compound], the IC50 on DNMT3A came to 5.8 µM; at DNMT3B, 2.8 µM.
